Experimental data: ChEMBL document CHEMBL1156887, “Discovery of olodaterol, a novel inhaled beta2-adrenoceptor agonist with a 24 h bronchodilatory efficacy” (Bioorg Med Chem Lett, 2010)

Tests used:
[1] = Lipophilicity, log D at pH 7.4; type: physicochemical; conditions: buffer
[2] = Apparent permeability from basolateral to apical side in human Caco-2 cells; type: ADME, cell-based
[3] = Apparent permeability from apical to basolateral side in human Caco-2 cells; type: ADME, cell-based
[4] = Oral bioavailability in rat; type: ADME, organism-based; conditions: in vivo

logD [1]: 1.2
Papp B→A [2]: 9 ×10⁻⁶ cm/s
Papp A→B [3]: 0.35 ×10⁻⁶ cm/s
bioavailability [4]: 3%
Structure (SMILES): COc1ccc(CC(C)(C)NC[C@H](O)c2cc(O)cc3c2OCC(=O)N3)cc1 [OLODATEROL]
